# Tests used:
# Type in all cases: in vivo, Male ICR mice
# mice [1] = experiment: thiopental sleep-enhancing test; details: 50 mg/kg i.p. 15 minutes before thiopental 60 mg/kg i.p.
# Protocol: Actions on thiopental sleep by various compounds were evaluated. Thiopental dissolved in physiological saline was administered intraperitoneally into mice at a dose of 60 mg/kg. […] The time when the righting reflex of the mice disappeared after thiopental administration was designated as sleep-induction time and the time when the righting reflex was restored was designated as awakening time, and total sleep time was calculated from these values.
# mice [2] = experiment: glass ball-covering behavior test (obsessive compulsive disorders)
# Protocol: (§1) In the following Examples, all extracts and drugs used were dissolved in physiological saline before use for i.p. administration and the dose was 0.1 ml of physiological saline per 10 g of mouse body weight in either case. All extracts and drugs were suspended in physiological saline containing 1% sodium carboxymethylcellulose before use for oral administration and the dose was 0.1 ml of 1% sodium carboxymethylcellulose-containing physiological saline suspension per 10 g of mouse body weight in either case. Male ICR mice (Japan SLC) having a body weight of 25 to 30 g were used in the tests below unless otherwise stated, and were fed in advance at a room temperature of 23±1° C. and a relative humidity of 55±5% in the environment of a cycle of 12-hour-light from 7 a.m. to 7 p.m. and 12-hour-dark from 7 p.m. to 7 a.m. for 3 to 5 days. The mice were allowed to have water and feed freely.
# In evaluating glass ball-covering behavior, wood chip for breeding (beta chip) (Oriental Yeast Co., Ltd.) was placed in the transparent cage described in Example 3 to a depth of 5 cm, on which 20 glass balls (diameter: 1.5 cm) were placed evenly.
# Twenty-one mice were grouped into three groups each of seven mice, to which 25 mg/kg of neferine hydrochloride (treatment group 6-1), 50 mg/kg of the same (treatment group 6-2), and physiological saline (negative control group) were administered intraperitoneally, respectively. A mouse was placed in the cage 15 minutes after administration, and the number of the glass balls not covered with the wood chip was counted by visual observation at an interval of 10 minutes. The number of balls having ⅔ or more of the surface thereof being embedded in the wood chip when the cage was observed from above was counted as the criteria for judgment.
# mice [3] = experiment: formalin pad test; details: for Licking sustaining time (second) First phase: 0 to 5 minutes; for Licking sustaining time (second) Second phase: 15 to 30 minutes
# Protocol: as §1
# A formalin pad test is a method in which, when formalin is subcutaneously administered to a pad of a mouse, the mouse causes licking, and analgesic action of a test drug is determined by utilizing this. Suppression of licking in a test drug-administered group was investigated relative to a physiological saline-administered control group, and analgestic action was evaluated.
# Six mice per group were used. Neferine hydrochloride was intraperitoneally administered at a dose of 25 mg/kg, 50 mg/kg or 100 mg/kg and, after fifteen minutes, 20 μl of a 0.2% by weight formalin aqueous solution was subcutaneously administered to a right hind paw pad. After formalin administration, licking was regarded as a provisional pain reaction, and a licking sustaining time in a first phase from immediately after formalin administration to five minutes after formalin administration and in a second phase from 15 minutes to 30 minutes after formalin administration was measured. Regarding the resulting measurements, a significant difference test was performed by a Dunnet multiple comparison test method.
# According to the same manner as in Example 13 except that 10 mg/kg of O-methylarmepavine was intraperitoneally administered in place of neferine, a formalin pad test was performed.
# [4] = 25 mg/kg i.p. 15 minutes before formalin
# [5] = 50 mg/kg i.p. 15 minutes before formalin
# [6] = 100 mg/kg i.p. 15 minutes before formalin
compound,measurement,setting,value
COc1ccc(C[C@@H]2c3cc(Oc4cc(C[C@@H]5c6cc(OC)c(OC)cc6CCN5C)ccc4O)c(OC)cc3CCN2C)cc1 [neferine],Total sleep time,mice [1],100 min
same,Number of glass balls covered with wood chip After 20 minutes,mice [2]; 25 mg/kg i.p.,7
same,Number of glass balls covered with wood chip After 30 minutes,mice [2]; 25 mg/kg i.p.,10
same,Number of glass balls covered with wood chip After 10 minutes,"mice [2]; 25 mg/kg i.p., placed in cage 15 minutes after administration",4
same,Number of glass balls covered with wood chip After 10 minutes,mice [2]; 50 mg/kg i.p.,3
same,Number of glass balls covered with wood chip After 20 minutes,mice [2]; 50 mg/kg i.p.,6
same,Number of glass balls covered with wood chip After 30 minutes,mice [2]; 50 mg/kg i.p.,9
same,Licking sustaining time (second) First phase,mice [3]; [4],95.2 ± 3.79 s
same,Licking sustaining time (second) Second phase,mice [3]; [4],235.7 ± 13.01 s
same,Licking sustaining time (second) First phase,mice [3]; [5],98.7 ± 8.57 s
same,Licking sustaining time (second) Second phase,mice [3]; [5],200.3 ± 24.43 s
same,Licking sustaining time (second) First phase,mice [3]; [6],78.3 ± 7.57 s
same,Licking sustaining time (second) Second phase,mice [3]; [6],139.7 ± 18.61 s
